Experimental data reported in patent US7205320B2, “Phosphodiesterase 4 inhibitors” (Memory Pharmaceuticals Corp., priority 2001, dated 2007).

Experiments:
rats [1] = assay: Radial arm maze task in rats, in vivo test for learning and memory (MK-801 amnesia); design: species or system rat; conditions: MK-801 0.1 mg/kg, i.p., p<0.01
Method: Radial Arm Maze Task in Rats, an In vivo Test for Learning and Memory
The test was performed as previously described (Zhang, H.-T., Crissman, A. M., Dorairaj, N. R., Chandler, L. J., and O'Donnell, J. M., Neuropsychopharmacalogy, 2000, 23, 198–204.). Five days after initial housing, rats (male Spraque-Dawley (Harlan) weighing 250 to 350 g) were placed in the eight-arm radial maze (each arm was 60×10×12 cm high; the maze was elevated 70 cm above the floor) for acclimation for two days. Rats were then placed individually in the center of the maze for 5 minutes with food pellets placed close to the food wells, and then, the next day, in the wells at the end of the arms; 2 sessions a day were conducted. Next, four randomly selected arms were then baited with one pellet of food each. […] Four parameters were recorded: […]) working memory errors, i.e., entries into baited arms that had already been visited during the same trial; 2) reference memory errors, i.e., entries into unbaited arms; 3) total arm entries; and 4) the test duration (seconds), i.e., the time spent in the collection of all the pellets in the maze. […]
(§1) All data were analyzed by analyses of variance (ANOVA); individual comparisons were made using Kewman-Keuls tests. […]

rats [2] = assay: Passive avoidance in rats, in vivo test for learning and memory (MK-801 amnesia); design: species or system rat; conditions: MK-801 0.1 mg/kg pretreatment, 24 hours after shock, p<0.001
Method: Passive Avoidance in Rats, an In vivo Test for Learning and Memory
The test was performed as previously described (Zhang, H.-T., Crissman, A. M., Dorairaj, N. R., Chandler, L. J., and O'Donnell, J. M., Neuropsychopharmacology, 2000, 23, 198–204.). The apparatus (Model E10-16SC, Coulbourn Instruments, Allentown, Pa.) consisted of a two-compartment chamber with an illuminated compartment connected to a darkened compartment by a guillotine door. The floor of the darkened compartment consisted of stainless steel rods through which an electric foot-shock could be delivered from a constant current source. All experimental groups were first habituated to the apparatus the day before the start of the experiment. During the training, the rat (Male Spraque-Dawley (Harlan) weighing 250 to 350 g) was placed in the illuminated compartment facing away from the closed guillotine door for 1 minute before the door was raised. The latency for entering the darkened compartment was recorded. After the rat entered the darkened compartment, the door was closed and a 0.5 mA electric shock was administered for 3 seconds. […] The latency for entering the darkened compartment was recorded for up to 180 seconds, at which time the trial was terminated.
as §1

C[C@]12N[C@H](Cc3ccccc31)c1ccccc12 [MK-801]
Frequencies of working and reference memory errors compared to control (rats [1]): increased
Latency for entering the darkened compartment compared to the vehicle (rats [2]): markedly reduced
